The source of these data is ChEMBL document CHEMBL1133677, “Carbonic anhydrase and matrix metalloproteinase inhibitors: sulfonylated amino acid hydroxamates with MMP inhibitory properties act as efficient inhibitors of CA isozymes I, II, and IV, and N-hydroxysulfonamides inhibit both these zinc enzymes” (J Med Chem, 2000).

Molecules are shown by their SMILES.

One assay deals with T1, Carbonic anhydrase 4 (Bos taurus, UniProt Q95323).
T1 sequence (Q95323 whole entry): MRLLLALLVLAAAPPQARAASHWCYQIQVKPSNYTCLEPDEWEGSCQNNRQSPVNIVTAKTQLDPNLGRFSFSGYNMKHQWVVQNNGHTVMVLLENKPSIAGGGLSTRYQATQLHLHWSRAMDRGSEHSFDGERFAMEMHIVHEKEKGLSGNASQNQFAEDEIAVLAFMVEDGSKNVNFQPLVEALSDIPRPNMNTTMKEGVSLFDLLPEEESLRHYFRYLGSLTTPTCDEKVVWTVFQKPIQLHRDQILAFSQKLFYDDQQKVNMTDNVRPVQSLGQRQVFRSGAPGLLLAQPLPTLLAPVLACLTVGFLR

The target of a further assay is Carbonic anhydrase 1 (Homo sapiens, UniProt P00915).
A further assay addresses Carbonic anhydrase 2 (Homo sapiens, UniProt P00918).

Sequence of Carbonic anhydrase 1 (P00915 whole entry): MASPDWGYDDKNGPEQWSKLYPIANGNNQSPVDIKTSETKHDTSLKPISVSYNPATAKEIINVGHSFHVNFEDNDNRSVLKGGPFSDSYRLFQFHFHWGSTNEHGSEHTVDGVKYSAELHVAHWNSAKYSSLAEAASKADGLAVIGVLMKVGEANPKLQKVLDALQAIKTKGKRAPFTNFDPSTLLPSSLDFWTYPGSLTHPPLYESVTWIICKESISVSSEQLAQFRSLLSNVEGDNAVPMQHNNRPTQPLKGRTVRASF

As for `CC(NS(=O)(=O)C(F)(F)C(F)(F)C(F)(F)C(F)(F)F)C(=O)NO` (configuration not stated), the inhibition constant (Ki) is 0.017 µM on Carbonic anhydrase 4, 0.021 µM at Carbonic anhydrase 1 and 0.016 µM at Carbonic anhydrase 2.

For the molecule `CC(C(=O)NO)N(Cc1ccc([N+](=O)[O-])cc1)S(=O)(=O)C(F)(F)C(F)(F)C(F)(F)C(F)(F)F` (configuration not stated), the Ki on Carbonic anhydrase 4, at Carbonic anhydrase 1 and at Carbonic anhydrase 2 was more than 0.2 µM in each case.

With `COc1ccc(S(=O)(=O)NO)cc1`, the Ki amounted to 0.11 µM on Carbonic anhydrase 4, 68 µM on Carbonic anhydrase 1 and 0.051 µM on Carbonic anhydrase 2.

With `CC(C)C(NS(=O)(=O)C(F)(F)C(F)(F)C(F)(F)C(F)(F)F)C(=O)NO` (configuration not stated), the inhibition constant Ki was determined as 0.02 µM at Carbonic anhydrase 4, 0.029 µM at Carbonic anhydrase 1 and 0.015 µM at Carbonic anhydrase 2.

As to `COc1ccc(S(=O)(=O)N(CC(=O)NO)Cc2ccccc2[N+](=O)[O-])cc1`, the Ki was 0.14 µM at Carbonic anhydrase 4, more than 0.2 µM on Carbonic anhydrase 1 and 0.17 µM on Carbonic anhydrase 2.

For `COc1ccc(S(=O)(=O)NC(CC(C)C)C(=O)NO)cc1` (configuration not stated), the inhibition constant (Ki) on Carbonic anhydrase 4 stood at 0.039 µM; at Carbonic anhydrase 1, 0.05 µM; at Carbonic anhydrase 2, 0.005 µM.

Take `CC(C(=O)NO)N(Cc1ccccc1)S(=O)(=O)C(F)(F)C(F)(F)C(F)(F)C(F)(F)F` (configuration not stated): the Ki at Carbonic anhydrase 4 stood at 0.107 µM; at Carbonic anhydrase 1, 0.121 µM; at Carbonic anhydrase 2, 0.092 µM.

For the molecule `O=S(=O)(NO)c1ccc(I)cc1`, the Ki on Carbonic anhydrase 4 worked out at 0.045 µM; at Carbonic anhydrase 1, 15 µM; on Carbonic anhydrase 2 it was 0.013 µM.

As for `COc1ccc(S(=O)(=O)N(Cc2ccccc2Cl)C(C)C(=O)NO)cc1` (configuration not stated), the Ki on Carbonic anhydrase 4, at Carbonic anhydrase 1 and on Carbonic anhydrase 2 was more than 0.2 µM throughout.

Take `O=S(=O)(NO)c1ccccc1`: the Ki was determined as 0.074 µM on Carbonic anhydrase 4, 18 µM on Carbonic anhydrase 1 and 0.026 µM on Carbonic anhydrase 2.

On to `COc1ccc(S(=O)(=O)N(CC(=O)NO)Cc2ccccc2)cc1`, for which the Ki was 0.145 µM on Carbonic anhydrase 4, more than 0.2 µM at Carbonic anhydrase 1 and 0.12 µM at Carbonic anhydrase 2.

Consider `CC(=O)Nc1ccc(S(=O)(=O)NO)cc1`, for which the Ki on Carbonic anhydrase 4 was 0.04 µM; on Carbonic anhydrase 1, 40 µM; on Carbonic anhydrase 2 it was 0.029 µM.

With `Cc1cc(C)c(S(=O)(=O)NO)c(C)c1`, the inhibition constant (Ki) at Carbonic anhydrase 4 is 0.156 µM; at Carbonic anhydrase 1 it was 72 µM; on Carbonic anhydrase 2, 0.062 µM.

On to `O=C(CNS(=O)(=O)c1c(F)c(F)c(F)c(F)c1F)NO`, for which the inhibitory constant (Ki) on Carbonic anhydrase 4 was determined as 0.01 µM; at Carbonic anhydrase 1, 0.007 µM; at Carbonic anhydrase 2, 0.008 µM.

For `O=[N+]([O-])c1ccc(S(=O)(=O)NO)cc1`, the figures for the Ki at Carbonic anhydrase 4, at Carbonic anhydrase 1 and on Carbonic anhydrase 2 were 0.07 µM, 57 µM and 0.009 µM, respectively.

In the case of `CC(C(=O)NO)N(Cc1ccccc1Cl)S(=O)(=O)c1c(F)c(F)c(F)c(F)c1F` (configuration not stated), the inhibition constant (Ki) at Carbonic anhydrase 4, on Carbonic anhydrase 1 and at Carbonic anhydrase 2 was more than 0.2 µM in each case.

Turning to `O=S(=O)(Cc1ccccc1)NO`, the values for the Ki on Carbonic anhydrase 4, on Carbonic anhydrase 1 and on Carbonic anhydrase 2 were 0.46 µM, 19 µM and 0.19 µM, respectively.

Turning to `O=C(CN(Cc1ccccc1[N+](=O)[O-])S(=O)(=O)c1c(F)c(F)c(F)c(F)c1F)NO`, the inhibition constant (Ki) at Carbonic anhydrase 4 was 0.049 µM; at Carbonic anhydrase 1 it was 0.127 µM; on Carbonic anhydrase 2 it was 0.074 µM.

As for `O=C(CNS(=O)(=O)C(F)(F)C(F)(F)C(F)(F)C(F)(F)F)NO`, the results for the Ki on Carbonic anhydrase 4, at Carbonic anhydrase 1 and on Carbonic anhydrase 2 were 0.016 µM, 0.018 µM and 0.015 µM, respectively.

As to `CC(C(=O)NO)N(Cc1ccc([N+](=O)[O-])cc1)S(=O)(=O)c1c(F)c(F)c(F)c(F)c1F` (configuration not stated), the Ki at Carbonic anhydrase 4, at Carbonic anhydrase 1 and at Carbonic anhydrase 2 was more than 0.2 µM throughout.

Turning to `Nc1ccc(S(=O)(=O)NO)cc1`, the Ki on Carbonic anhydrase 4 was 0.055 µM; on Carbonic anhydrase 1 it was 62 µM; on Carbonic anhydrase 2, 0.037 µM.

For the molecule `CC(C(=O)NO)N(Cc1ccccc1[N+](=O)[O-])S(=O)(=O)c1c(F)c(F)c(F)c(F)c1F` (configuration not stated), the Ki at Carbonic anhydrase 4 was more than 0.2 µM; on Carbonic anhydrase 1 it was more than 0.2 µM; on Carbonic anhydrase 2 it was 0.16 µM.

`COc1ccc(S(=O)(=O)N(Cc2ccccc2)C(C(=O)NO)C(C)C)cc1` (configuration not stated): the inhibition constant (Ki) was 0.185 µM at Carbonic anhydrase 4, more than 0.2 µM on Carbonic anhydrase 1 and more than 0.2 µM on Carbonic anhydrase 2.

For the molecule `COc1ccc(S(=O)(=O)NCC(=O)NO)cc1`, the inhibitory constant (Ki) worked out at 0.029 µM at Carbonic anhydrase 4, 0.03 µM at Carbonic anhydrase 1 and 0.032 µM at Carbonic anhydrase 2.

`O=C(CN(Cc1ccc([N+](=O)[O-])cc1)S(=O)(=O)C(F)(F)C(F)(F)C(F)(F)C(F)(F)F)NO`: the Ki was 0.136 µM on Carbonic anhydrase 4, more than 0.2 µM at Carbonic anhydrase 1 and 0.118 µM at Carbonic anhydrase 2.

As to `CC(C)CC(NS(=O)(=O)c1c(F)c(F)c(F)c(F)c1F)C(=O)NO` (configuration not stated), the figures for the Ki at Carbonic anhydrase 4, at Carbonic anhydrase 1 and on Carbonic anhydrase 2 were 0.019 µM, 0.01 µM and 0.011 µM, respectively.

In the case of `O=[N+]([O-])c1ccc(S(=O)(=O)NO)cc1Cl`, the Ki on Carbonic anhydrase 4 came to 0.012 µM; at Carbonic anhydrase 1 it was 17 µM; at Carbonic anhydrase 2, 0.004 µM.

For `O=C(O)c1ccccc1S(=O)(=O)NO`, the Ki at Carbonic anhydrase 4 is 0.012 µM; on Carbonic anhydrase 1, 25 µM; on Carbonic anhydrase 2 it was 0.0009 µM.

For the molecule `CC(C)C(C(=O)NO)N(Cc1ccccc1)S(=O)(=O)c1c(F)c(F)c(F)c(F)c1F` (configuration not stated), the Ki at Carbonic anhydrase 4 stood at 0.048 µM; at Carbonic anhydrase 1 it was 0.088 µM; at Carbonic anhydrase 2, 0.045 µM.

Consider `O=S(=O)(NO)c1cccc(C(F)(F)F)c1`, for which the Ki on Carbonic anhydrase 4 is 0.016 µM; on Carbonic anhydrase 1, 33 µM; on Carbonic anhydrase 2 it was 0.0011 µM.

Regarding `Cc1ccc(S(=O)(=O)NO)cc1`, the Ki is 0.127 µM on Carbonic anhydrase 4, 51 µM at Carbonic anhydrase 1 and 0.07 µM on Carbonic anhydrase 2.

Regarding `O=S(=O)(NO)c1c(F)c(F)c(F)c(F)c1F`, the Ki on Carbonic anhydrase 4 stood at 0.013 µM; at Carbonic anhydrase 1, 30 µM; on Carbonic anhydrase 2, 0.0008 µM.

Take `CN(C)S(=O)(=O)NO`: the results for the inhibition constant (Ki) on Carbonic anhydrase 4, on Carbonic anhydrase 1 and on Carbonic anhydrase 2 were 0.29 µM, 12 µM and 0.04 µM, respectively.

As to `O=C(CN(Cc1ccccc1)S(=O)(=O)c1c(F)c(F)c(F)c(F)c1F)NO`, the Ki worked out at 0.042 µM on Carbonic anhydrase 4, 0.09 µM on Carbonic anhydrase 1 and 0.036 µM at Carbonic anhydrase 2.

As for `COc1ccc(S(=O)(=O)N(Cc2ccccc2)C(CC(C)C)C(=O)NO)cc1` (configuration not stated), the Ki is 0.19 µM on Carbonic anhydrase 4, more than 0.2 µM at Carbonic anhydrase 1 and more than 0.2 µM at Carbonic anhydrase 2.

Take `CC(C)CC(C(=O)NO)N(Cc1ccccc1)S(=O)(=O)C(F)(F)C(F)(F)C(F)(F)C(F)(F)F` (configuration not stated): the Ki on Carbonic anhydrase 4 came out at 0.139 µM; on Carbonic anhydrase 1, 0.18 µM; on Carbonic anhydrase 2, 0.116 µM.

In the case of `COc1ccc(S(=O)(=O)NC(C(=O)NO)C(C)C)cc1` (configuration not stated), the inhibition constant Ki at Carbonic anhydrase 4 was 0.038 µM; at Carbonic anhydrase 1, 0.033 µM; at Carbonic anhydrase 2, 0.039 µM.

On to `CC(C)C(NS(=O)(=O)c1c(F)c(F)c(F)c(F)c1F)C(=O)NO` (configuration not stated), for which the Ki at Carbonic anhydrase 4 worked out at 0.013 µM; at Carbonic anhydrase 1, 0.008 µM; on Carbonic anhydrase 2 it was 0.011 µM.

On to `CC(NS(=O)(=O)c1c(F)c(F)c(F)c(F)c1F)C(=O)NO` (configuration not stated), for which the Ki on Carbonic anhydrase 4 came out at 0.01 µM; on Carbonic anhydrase 1 it was 0.007 µM; at Carbonic anhydrase 2, 0.008 µM.

In the case of `O=S(=O)(NO)c1ccc(Cl)cc1`, the values for the inhibitory constant (Ki) at Carbonic anhydrase 4, at Carbonic anhydrase 1 and on Carbonic anhydrase 2 were 0.12 µM, 27 µM and 0.021 µM, respectively.

Regarding `CS(=O)(=O)NO`, the Ki was found to be 0.056 µM on Carbonic anhydrase 4 and 0.0047 µM at Carbonic anhydrase 2.

For `O=[N+]([O-])c1ccccc1S(=O)(=O)NO`, the inhibitory constant (Ki) on Carbonic anhydrase 4 was found to be 0.013 µM; on Carbonic anhydrase 1, 15 µM; at Carbonic anhydrase 2, 0.005 µM.

As to `CC(C)CC(NS(=O)(=O)C(F)(F)C(F)(F)C(F)(F)C(F)(F)F)C(=O)NO` (configuration not stated), the Ki at Carbonic anhydrase 4 came to 0.03 µM; on Carbonic anhydrase 2, 0.018 µM.
